Entries after “also recorded” stand apart in the source; their conditions may differ.
Legend:
[1] = biological target: T1, AT1R-CXCR2 heteromer (Homo sapiens, UniProt P25025+P30556); assay: BRET trafficking of AT1R/Rluc8 to Venus/Kras or Venus/Rab markers, presence of unlabelled CXCR2; format: cell-based
T1 sequence (P30556 1-359): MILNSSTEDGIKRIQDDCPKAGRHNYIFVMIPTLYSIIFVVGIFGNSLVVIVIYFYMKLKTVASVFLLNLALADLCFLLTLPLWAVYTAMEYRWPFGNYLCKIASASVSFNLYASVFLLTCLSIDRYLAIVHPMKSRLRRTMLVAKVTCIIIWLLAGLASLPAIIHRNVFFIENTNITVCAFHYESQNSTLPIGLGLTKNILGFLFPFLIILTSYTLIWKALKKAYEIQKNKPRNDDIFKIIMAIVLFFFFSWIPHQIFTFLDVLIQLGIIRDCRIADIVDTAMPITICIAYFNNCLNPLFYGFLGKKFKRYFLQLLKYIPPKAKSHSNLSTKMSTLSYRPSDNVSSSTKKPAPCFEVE
T1 sequence (P25025 1-360): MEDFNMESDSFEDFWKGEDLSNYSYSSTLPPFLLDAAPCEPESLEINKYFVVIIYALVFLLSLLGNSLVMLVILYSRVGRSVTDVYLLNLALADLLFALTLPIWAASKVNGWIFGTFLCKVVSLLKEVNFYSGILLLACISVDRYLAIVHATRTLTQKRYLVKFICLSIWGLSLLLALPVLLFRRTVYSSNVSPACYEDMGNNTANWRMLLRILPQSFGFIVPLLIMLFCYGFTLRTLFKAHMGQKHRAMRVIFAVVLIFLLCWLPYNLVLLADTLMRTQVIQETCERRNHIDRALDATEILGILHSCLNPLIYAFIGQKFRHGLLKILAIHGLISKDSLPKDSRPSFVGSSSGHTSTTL
Description: (§1) HEK293FT cells were seeded in 6-well plates at a density of approximately 700,000 cells/well and maintained at 37° C., 5% CO2 in Complete Media (DMEM containing 0.3 mg/ml glutamine, 100 IU/ml penicillin and 100 μg/ml streptomycin (Gibco/Thermo Fisher)) supplemented with 10% fetal calf serum (FCS; Bovogen). Transient transfections were carried out 24 h after seeding using FuGene6™ (Promega) according to manufacturer instructions. 24 h post-transfection, cells were washed with PBS, detached using 0.05% trypsin/0.53 mM EDTA, resuspended in HEPES-buffered phenol red free Complete Media containing 5% FCS and added to a poly-L-lysine-coated white 96-well microplate (Greiner Bio-One). 48 h post-transfection, bioluminescence resonance energy transfer (BRET) assays were carried out following pre-incubation of cells with EnduRen™ (Promega) at a final concentration of 30 μM, at 37° C., 5% CO2 for 2 h. BRET measurements were taken at 37° C. using the LUMlstar™ or CLARIOstar™ (BMG Labtech). Filtered light emissions were measured for 1 s in each of the ‘donor wavelength window’ (460-490 nm for LUMlstar™ or 410-490 nm for CLARIOstar™) and ‘acceptor wavelength window’ (520-550 nm for LUMlstar™ or 520-620 nm for CLARIOstar™).
(§2) The BRET signal observed between interacting proteins is normalized by subtracting the background BRET ratio. This can be done in one of two ways (see Pfleger et al. (2006) Cell Signal 18:1664-1670; Pfleger et al. (2006) Nat Protoc 1:336-344): 1) the ratio of the 520-550 nm or 520-620 nm emission over the 460-490 nm or 410-490 nm emission for a cell sample containing only the donor construct is subtracted from the same ratio for a sample containing the interacting acceptor and donor fusion proteins; 2) the ratio of the 520-550 nm or 520-620 nm emission over the 460-490 nm or 410-490 nm emission for a cell sample treated with vehicle is subtracted from the same ratio for a second aliquot of the same cell sample treated with ligand. In the following examples, the second calculation will be used and the signal is described as ligand-induced BRET′. Furthermore, for data shown in FIGS. 4 to 20, all data points in a given set are corrected relative to the final data point prior to agonist treatment, which is fixed to zero. In keys on FIGS. 7 to 20, “>” means “followed by after 50 minutes”, with agonists added at time zero on the x-axes.
(§3) The Receptor-Heteromer Investigation Technology (Receptor-HIT) is an assay configuration that provides insights into receptor complexes (Ayoub et al. (2015) PLoS One 10(3):e0119803). It is also known as GPCR-HIT when assessing GPCRs. It is an assay configuration whereby one receptor (eg. CXCR2) is labelled with one component (eg. Renilla luciferase variant Rluc8) of a proximity-based reporter system (eg. BRET), the complementary component of which (eg. Venus yellow fluorescent protein) is fused to a receptor interacting partner (eg. mGsi).
(§4) Referring now to FIG. 3 (published in Tiulpakov et al (2016) Mol. Endocrinol. 30, 889-904), the proximity of Rluc8-tagged receptors to Venus-tagged Kras plasma membrane marker, or Venus-tagged Rabs specific for distinct subcellular locations, is monitored in live cells and in real-time using BRET. The Rab markers are: Venus/Rab5 (5) for early endosomes; Venus/Rab4 (4) for early endosome recycling; Venus/Rab11a (11) for recycling endosomes; Venus/Rab7 (7) for late endosomes/lysosomes; Venus/Rab9 (9) for late endosome trafficking to the trans-Golgi network; Venus/Rab1 (1) for endoplasmic reticulum trafficking to the cis-Golgi; Venus/Rab6 (6) for Golgi apparatus and trans-Golgi network; or Venus/Rab8 (8) for trans-Golgi network to plasma membrane.

[2] = biological target: T2, AT1R-CXCR2 heteromer (Homo sapiens, UniProt P25025+P30556); assay: BRET trafficking of CXCR2/Rluc8 to Venus/Kras or Venus/Rab markers, presence of HA-AT1R; format: cell-based
T2 sequence (P25025 1-360): T1 sequence (P25025 1-360)
T2 sequence (P30556 1-359): T1 sequence (P30556 1-359)
Description: as §1, §2, §3, §4

Angiotensin II [AngII]
proximity of AT1R/Rluc8 to Venus/Kras (BRET) [1]: marked reduction; also recorded: does not result in a notable increase
proximity of AT1R/Rluc8 to Venus/Rab1 (BRET) [1]: increase
proximity of AT1R/Rluc8 to Venus/Rab4 (BRET) [1]: increase
proximity of AT1R/Rluc8 to Venus/Rab5 (BRET) [1]: substantial increase
proximity of AT1R/Rluc8 to Venus/Rab7 (BRET) [1]: increase
proximity of AT1R/Rluc8 to Venus/Rab8 (BRET) [1]: less of an effect
proximity of AT1R/Rluc8 to Venus/Rab9 (BRET) [1]: increase
proximity of AT1R/Rluc8 to Venus/Rab11a (BRET) [1]: substantial increase
proximity of CXCR2/Rluc8 to Venus/Kras (BRET) [2]: increased proximity
proximity of CXCR2/Rluc8 to Venus/Rab1 (BRET) [2]: barely any effect
proximity of CXCR2/Rluc8 to Venus/Rab4 (BRET) [2]: very small increase
proximity of CXCR2/Rluc8 to Venus/Rab5 (BRET) [2]: very small increase
proximity of CXCR2/Rluc8 to Venus/Rab6 (BRET) [2]: small increase
proximity of CXCR2/Rluc8 to Venus/Rab7 (BRET) [2]: barely any effect
proximity of CXCR2/Rluc8 to Venus/Rab8 (BRET) [2]: clear increase
proximity of CXCR2/Rluc8 to Venus/Rab9 (BRET) [2]: small increase
proximity of CXCR2/Rluc8 to Venus/Rab11a (BRET) [2]: barely any effect

From patent publication US20240009191A1, “METHOD AND COMPOSITION FOR THE TREATMENT OF DISEASE” (DIMERIX BIOSCIENCE PTY LTD, priority 2019, published 2024)
